# Laboratory results: US20240325374A1, “INHIBITING INTRACELLULAR PATHOGENS” (THE RESEARCH INSTITUTE AT NATIONWIDE CHILDREN'S HOSPITAL, priority 2021, published 2024)
# pEC50: −log10 of the molar value.
# Experiments:
# [1] = test system: ciprofloxacin-resistant S. typhimurium; assay: Mouse model of typhoid fever, ciprofloxacin-resistant S. typhimurium, survival; type: in vivo, BALB/c mice
# Experimental: S. typhi is a human-restricted pathogen and is unable to colonize in mice. However, S. typhimurium causes a typhoid fever-like disease in mice and is widely used as a model to study human typhoid fever. Johnson, R., E. Mylona, and G. Frankel, Cell Microbiol, 2018. 20(9): p. e12939. […] Mice were infected with the ciprofloxacin-resistant S. typhimurium at a lethal dose of 10^6 CFU per mouse in 200 μl PBS via the i.p. route.
# After determining the maximum tolerable dose of KH-1-2 by the i.p. route (10 mg/kg of body weight per day), the protective efficacy of KH-1-2 as a treatment for typhoid fever was evaluated. Mice (4 or 5 mice per group) were infected at day 0 with a lethal dose of the ciprofloxacin-resistant S. typhimurium isolate as described above. One day post-infection, the infected mice were given KH-1-2 prepared in 200 μl PBS at 0.05, 0.1, and 0.25 mg/kg body weight per day via i.p. delivery for 14 consecutive days.
# We next sought to examine the effectiveness of delivering KH-1-2 for controlling a ciprofloxacin-resistant S. typhimurium isolate in a mouse model of typhoid fever. Mice were challenged with a lethal dose of bacteria via oral gavage and the infected mice were i.p. treated with KH-1-2 prepared in 200 μl PBS at 0.05, 0.1, and 0.25 mg/kg body weight/day for 14 consecutive days. […] As expected, all mice in the control group were moribund before or at day 12 post-infection.
# [2] = test system: S. typhimurium wild-type strain ATCC 14028; assay: Bacterial growth in macrophages (intracellular CFU), wild-type S. typhimurium in J774.1; type: cell-based
# Description: (§1) Hoang et al., International Journal of Pharmaceutics, 2014. 477(1-2): p. 334-343.
# The J774.1 cells were infected with S. typhimurium and treated with KH-2.
# macrophages = assay: Toxicity of compound alone to macrophages by LDH release; type: cell-based; conditions: effective concentrations
# [3] = test system: PLB-985 neutrophil-like cells; assay: Neutrophil reactive oxygen species production assay; type: cell-based; conditions: various concentrations, luminol chemiluminescence for 1 hour
# Experimental: PLB-985 cells that were cultured in RPMI supplemented with 10% FBS and penicillin-streptomycin (100 μg/ml each) were differentiated to a neutrophil-like phenotype by 6-day incubation in RPMI supplemented with 0.5% N,N-dimethylformamide, 0.5% FBS, 1% Nutridoma-SP (Roche; Mannheim, Germany), […] L-glutamine, and 1× penicillin/streptomycin. Media was replaced on day 3. On day 6 after differentiation, the medium was removed and replaced with 100 μl fresh medium containing different concentrations of KH-1-2. Cells in the positive control group were stimulated with 400 ng PMA/ml. Cells in the negative control group were treated with an equivalent concentration of DMSO. All groups were supplied with luminol (final concentration of 500 μM) and reactive oxygen species (ROS) production at 37° C. was monitored in triplicate by luminol-dependent chemiluminescence measured every 2 minutes for 1 hour using a Spectra Max M3 plate reader.
# S. typhi strain TY2 = assay: Bacterial growth in macrophages (intracellular CFU), S. typhi in J774.1; type: cell-based; conditions: infected J774.1, 24 hrs post treatment
# Description: as §1
# uninfected mice = assay: Toxicity study of KH-1-2 in vivo
# Experimental: To examine the toxicity of KH-1-2, mice were intraperitoneally (i.p.) given KH-1-2 that was dissolved in 200 μl of polyethylene glycol 400 (PEG 400)-0.9% saline-ethanol (50:35:15) at 1 mg and 10 mg/kg of body weight per day for 12 consecutive days. Mice in the control groups received 200 μl of PEG-saline-ethanol. The experimental animals were observed daily throughout the study for clinical signs, and mortality. At the end of the experiment, mice were sacrificed, and liver, spleen, and kidney were collected, fixed in 4% paraformaldehyde for 72 hrs, processed and stained with hematoxylin and eosin (H&E) for histopathologic evaluation, which was performed at the Morphology Core at Nationwide Children's Hospital.
# To examine the in vivo toxicity of KH-1-2, uninfected mice were given KH-1-2 intraperitoneally in 200 μl of polyethylene glycol 400 (PEG 400)-0.9% saline-ethanol (50:35:15) at 1 and 10 mg/kg body weight daily for 12 consecutive days. Mice in the control group were treated with an equal amount of diluent. Mice were monitored for clinical signs and at day 13, the liver, spleen, and kidney were collected for histopathologic evaluation.
# S. typhimurium [4] = assay: KH-2 protection of mice from lethal S. typhimurium infection, survival; type: in vivo, BALB/c mice; conditions: 0.5, 1.0, 2.5 and 5 mg/kg/day i.p., day 1 to day 12, oral infection 10^6 bacteria/mouse, survival to day 14
# Experimental: Pathogen-free 6- to 8-week-old female BALB/c mice were purchased from Harlan Sprague. Mice (3 mice/group, except the vehicle control group) were provided food and water ad libitum in sterile microisolator cages and allowed to acclimatize for 3 days before challenge. Mice were orally infected with 10^6 bacteria/mouse (day 0) in 200 μl PBS. The infected mice were intraperitoneally given KH-2 at different doses (5 mg, 2.5 mg, 1 mg, and 0.5 mg/kg body weight/day) in 200 μl PBS from day 1 to day 12 post infection. Vehicle (DMSO) was added as the control group. The mice were monitored for survival until day 14 post infection. […] A mouse model of typhoid fever was used to assess the efficacy of KH-2 in increasing the survival rate of infected mice.
# S. typhimurium [5] = assay: Broth antibacterial assay (OD600 in LB); type: cell-based; conditions: KH-2 10 μM, 20 μM and 50 μM
# Experimental: An equivalent amount of DMSO was added in a control group. The bacterial growth was monitored at an optical density at 600 nm (OD600) at the indicated time points using a plate reader Spectra Max M3.
# Overnight cultures of S. typhimurium were sub-cultured (1:100) in fresh Luria-Bertani (LB) broth in presence of different concentration of KH-2 and incubated at 37° C. The vehicle control (DMSO) groups were included. The experiments were performed in 96-well plates. The bacterial growth was monitored at different time-points by measuring optical density at 600 nm (OD600).
# [6] = test system: S. typhimurium-infected J774.1 macrophages; assay: LDH release from Salmonella-infected macrophages; type: cell-based, murine; conditions: 5 μM, 10 μM and 20 μM, after 24 h
# Experimental: The strategy to identify host-targeted compounds is outlined in FIG. 1. Briefly, J774.1 macrophages in suspension at 3×10^6 cells/ml were infected with S. typhimurium at a multiplicity of infection (MOI) of 10 for 1 hour with orbital shaking at 80 rpm. […] The infected macrophages were resuspended in a medium containing 10 μg/ml gentamicin, seeded onto 96-well plates at 10^5 cells/well in 150 μl medium, and allowed to adhere to the well for three hours. The infected cells in each well were then treated with 25 μM of each compound from the ATP mimetic library using a multichannel pipette. […] After 24 hours of incubation, an LDH assay (Roche Applied Science, Indianapolis, IN) was performed using 50 μl of supernatant from each well. Absorbance at 570 nm was determined via a plate reader Spectra Max M3. […]
# We developed a cell-based assay to screen 3000 compounds of an ATP-mimetic library purchased from ChemBridge using J774.1 macrophages for those that protect S. typhimurium-infected macrophages from death. The viability of Salmonella-infected J774.1 cells was determined by measuring LDH release from the infected cells. […] To examine whether the reduction in LDH release was due to the limited growth of the bacteria intracellularly, the infected cells were treated with various concentrations of KH-1, and the intracellular bacterial load was determined at 24 hours post-treatment. […]
SMILES,"survival ([1]; 0.1 mg/kg body weight/day i.p., 14 consecutive days, lethal dose 10^6 CFU/mouse) [%]","survival versus control untreated group ([1]; 0.05, 0.1 and 0.25 mg/kg body weight/day i.p., 14 days, p<0.05)","pEC50 ([2]; Salmonella enterica, infected J774.1 cells, CFU at 24 hrs post treatment, % of DMSO control, read-out: half maximal effective concentration (EC50) on S. typhimurium)",reduction in bacterial load in infected macrophages ([2]; in vitro treatment of Salmonella infection),"intracellular bacterial growth in combination with sub-optimal ciprofloxacin ([2]; infected macrophages, with sub-optimal dose of ciprofloxacin, 24 hours post-treatment)",toxicity to macrophages as measured by LDH release (macrophages),reactive oxygen species (ROS) production [3],"intracellular growth of S. typhi, compared with KH-1 (S. typhi strain TY2)",liver histopathology (uninfected mice; 1 mg/kg i.p. daily),liver histopathology (uninfected mice; 10 mg/kg i.p. daily),"maximum tolerable dose (uninfected mice; i.p. route, mice)","clinical signs (uninfected mice; uninfected mice, i.p., 1 and 10 mg/kg body weight daily, 12 consecutive days)","immune cell migration and apoptosis in liver, spleen, kidney (uninfected mice; uninfected mice, i.p., 1 and 10 mg/kg daily, 12 days)","histologic evaluation of the liver, spleen, and kidney (uninfected mice; uninfected mice, i.p., 1 and 10 mg/kg daily, 12 days, organs at day 13)",survival of mice after lethal Salmonella infection (S. typhimurium [4]),"growth of Salmonella in J774.1 macrophages (intracellular CFU) ([2]; KH-2 5 μM, 10 μM and 20 μM, after 24 hours)",growth of Salmonella in Luria-Bertani (LB) bacterial growth media (OD600) (S. typhimurium [5]),lactate dehydrogenase (LDH) release from Salmonella infected J774.1 macrophages [6]
"O=C1c2oc3ccccc3c(=O)c2C(c2cccc(Oc3ccccc3)c2)N1Cc1ccc(F)cc1 (stereo not drawn) [KH-1-2, 2-(4-fluorobenzyl)-1-(3-phenoxyphenyl)-1,2-dihydrochromeno[2,3-c] pyrrole-3,9-dione]",60,significantly greater survival,5.59,8- to 10 fold,further reduces Salmonella growth inside macrophages,not toxic to macrophages at the effective concentrations,does not involve in induction of reactive oxygen species (ROS) production,more effective at reducing the intracellular growth of S. typhi,no adverse effects,minimal alterations including increased infiltration of lymphocytic cells and neutrophils,10 mg/kg of body weight per day,no adverse clinical signs,No increase in immune cell migration or significant apoptosis,no dose-related macroscopic or microscopic findings,–,–,–,–
"COC(=O)c1cccc(COC(=O)c2cc(O)nc3ccccc23)c1 [KH-2, 3-(methoxycarbonyl)benzyl 2-hydroxy-4-quinolinecarboxylate]",–,–,–,–,–,–,–,–,–,–,–,–,–,–,protects mice from lethal Salmonella infection,inhibits the growth of Salmonella in J774.1 macrophages,does not inhibit the growth of Salmonella in Luria-Bertani (LB) bacterial growth media,reduced lactate dehydrogenase (LDH) release from Salmonella infected J774.1 macrophages
